Article PMC11653702, “Targeting the SPC25/RIOK1/MYH9 Axis to Overcome Tumor Stemness and Platinum Resistance in Epithelial Ovarian Cancer” (Advanced Science, 2024)
Blank lines part the entries; values can stand above or below the molecule they belong to.

Tests used:
[1] = system: patients with EOC; design: method as in 2 sources, ref 59 = [59]; PMID 22204724; doi:10.1056/NEJMoa1104390; 59 R. A. Burger , M. F. Brady , M. A. Bookman , G. F. Fleming , B. J. Monk , H. Huang , R. S. Mannel , H. D. Homesley , J. Fowler , B. E. Greer , M. Boente , M. J. Birrer , S. X. Liang , G. G. Oncolog ||| ref 61, 62, 63 = [61]; PMID 25481791; doi:10.1016/S1470-2045(14)71135-0; 61 A. M. Oza , D. Cibula , A. O. Benzaquen , C. Poole , R. H. Mathijssen , G. S. Sonke , N. Colombo , J. Spacek , P. Vuylsteke , H. Hirte , S. Mahner , M. Plante , B. Schmalfeldt , H. Mackay , J. Rowb || [62]; PMID 34485111; doi:10.3389/fonc.2021.638295; 62 N. Ren , L. Zhang , J. Yu , S. Guan , X. Dai , L. Sun , M. Ying , Front. Oncol. 2021 , 11 , 638295 . 34485111 10.3389/fonc.2021.638295 PMC8414886 || [63]; PMID 27663600; doi:10.1158/1078-0432.CCR-16-1546; 63 J. M. Lee , C. J. Peer , M. Yu , L. Amable , N. Gordon , C. M. Annunziata , N. Houston , A. K. Goey , T. M. Sissung , B. Parker , L. Minasian , V. L. Chiou , R. F. Murphy , B. C. Widemann , W. D. F; settings: cited from earlier work; for PFS or OS during chemotherapy: PARP inhibitors during chemotherapy; for maintenance treatment benefit for patient survival: PARP inhibitors, maintenance treatment of EOC
[2] = system: MYH9 phosphorylation at Ser1943; experiment: Western blotting, phosphorylation of MYH9 at Ser1943 under CX-4945, OVCAR3 and OVCAR8; type: cell-based, human; settings: CX-4945 6 μM, OVCAR3 and OVCAR8 cells with SPC25 overexpression or silencing
Experimental: (§1) Western Blotting: Western blotting was performed using primary antibodies detailed in Table S5 (Supporting Information). Western blotting grayscale analyses were performed using ImageJ (version 2.0.0; NIH, Bethesda, MD, USA). β-Catenin expression was quantified by determining the gray level of each band using Image J and normalized using α-tubulin.
Figure S6. A) Exogenous IP assays performed to assess Ser/Thr phosphorylation status of MYH9-Myc in HEK293FT cells with or without SPC25-Flag expression. B) Quantification of nuclear or cellular fluorescence of reexpressed GFP-MYH9-WT with NLS2-2A and NLS2-3A mutants in MYH9-silenced OVCAR3 cells with or without SPC25 overexpression. C) qRT-PCR of MYH9 in OVCAR8 and SKOV3 cells with exogenous expression of MYH9 mutant variants. D) qRT-PCR of MYH9 in MYH9-silenced OVCAR3 and OVCAR8 cells with reexpression of MYH9-WT or MYH9-S1943A. E) qRT-PCR of CTNNB1 in MYH9-silenced OVCAR8 cells with reexpression of MYH9-WT or MYH9-S1943A under SPC25 silencing (left). TOP/FOP Flash analysis in MYH9-silenced OVCAR8 cells with reexpression of MYH9-WT or MYH9-S1943A under SPC25 silencing (right). F) Endogenous phosphorylation status of MYH9 at Ser1943 in OVCAR3 and OVCAR8 cells under escalating doses of CX-4945 examined through Western blotting. […]

[3] = molecular target: casein kinase II (CKII); experiment: Inhibition of endogenous CKII kinase activity; type: cell-based, human; settings: OVCAR3 and OVCAR8 cells
Experimental: as §1

[4] = system: COV644 cells; experiment: Tumor sphere formation, XAV939, SPC25-overexpressing COV644; type: cell-based, human; settings: for Log(negative ratio, 2) / negative ratio / number of negative wells: XAV939 100uM, 24 wells
[5] = system: OVCAR3 cells; experiment: Tumor sphere formation, XAV939, SPC25-overexpressing OVCAR3; type: cell-based, human; settings: for negative ratio / number of negative wells: XAV939 100uM, 24 wells

Molecule: NC(=O)c1cccc2cn(-c3ccc([C@@H]4CCCNC4)cc3)nc12 [niraparib]
PFS or OS during chemotherapy [1]: marginal PFS or OS enhancements
maintenance treatment benefit for patient survival [1]: marked benefits

Molecule: O=C(c1cc(Cc2n[nH]c(=O)c3ccccc23)ccc1F)N1CCN(C(=O)C2CC2)CC1 [olaparib]
PFS or OS during chemotherapy [1]: marginal PFS or OS enhancements
maintenance treatment benefit for patient survival [1]: marked benefits

kinase activity of endogenous CKII [3]: completely inhibited
Molecule: O=C(O)c1ccc2c(c1)nc(Nc1cccc(Cl)c1)c1ccncc12 [CX-4945]
SPC25-mediated promotion of MYH9 phosphorylation at Ser1943 [2]: persisted

Molecule: bevacizumab: biological agent combined with platinum-based regimens
PFS prolongation ([1]; added to platinum-based regimens, recurrent patients with EOC, compared with controls): 3–4 months

Molecule: Oc1nc(-c2ccc(C(F)(F)F)cc2)nc2c1CSCC2 [XAV939]
enhanced stemness attributable to SPC25 overexpression (tumor sphere formation) ([4]; SPC25-overexpressing COV644): effectively mitigated the enhanced stemness
Log(negative ratio, 2) ([4]; COV644-SPC25, 50 cells): 0
negative ratio ([4]; COV644-SPC25, 50 cells): 1
number of negative wells ([4]; COV644-SPC25, 50 cells): 24
Log(negative ratio, 2) ([4]; COV644-SPC25, 100 cells): 0
negative ratio ([4]; COV644-SPC25, 100 cells): 1
number of negative wells ([4]; COV644-SPC25, 100 cells): 24
number of negative wells ([4]; COV644-SPC25, 200 cells): 23
number of negative wells ([4]; COV644-SPC25, 400 cells): 23
number of negative wells ([4]; COV644-SPC25, 800 cells): 21
Log(negative ratio, 2) ([4]; COV644-Vector, 50 cells): 0
negative ratio ([4]; COV644-Vector, 50 cells): 1
number of negative wells ([4]; COV644-Vector, 50 cells): 24
Log(negative ratio, 2) ([4]; COV644-Vector, 100 cells): 0
negative ratio ([4]; COV644-Vector, 100 cells): 1
number of negative wells ([4]; COV644-Vector, 100 cells): 24
Log(negative ratio, 2) ([4]; COV644-Vector, 200 cells): 0
negative ratio ([4]; COV644-Vector, 200 cells): 1
number of negative wells ([4]; COV644-Vector, 200 cells): 24
number of negative wells ([4]; COV644-Vector, 400 cells): 23
number of negative wells ([4]; COV644-Vector, 800 cells): 22
enhanced stemness attributable to SPC25 overexpression (tumor sphere formation) ([5]; SPC25-overexpressing OVCAR3): effectively mitigated the enhanced stemness
negative ratio ([5]; OVCAR3-SPC25, 50 cells): 1
number of negative wells ([5]; OVCAR3-SPC25, 50 cells): 24
negative ratio ([5]; OVCAR3-SPC25, 100 cells): 1
number of negative wells ([5]; OVCAR3-SPC25, 100 cells): 24
negative ratio ([5]; OVCAR3-SPC25, 200 cells): 0.9167
number of negative wells ([5]; OVCAR3-SPC25, 200 cells): 22
negative ratio ([5]; OVCAR3-SPC25, 400 cells): 0.875
number of negative wells ([5]; OVCAR3-SPC25, 400 cells): 21
negative ratio ([5]; OVCAR3-SPC25, 800 cells): 0.8333
number of negative wells ([5]; OVCAR3-SPC25, 800 cells): 20
negative ratio ([5]; OVCAR3-Vector, 50 cells): 1
number of negative wells ([5]; OVCAR3-Vector, 50 cells): 24
negative ratio ([5]; OVCAR3-Vector, 100 cells): 1
number of negative wells ([5]; OVCAR3-Vector, 100 cells): 24
negative ratio ([5]; OVCAR3-Vector, 200 cells): 0.9583
number of negative wells ([5]; OVCAR3-Vector, 200 cells): 23
negative ratio ([5]; OVCAR3-Vector, 400 cells): 0.9167
number of negative wells ([5]; OVCAR3-Vector, 400 cells): 22
negative ratio ([5]; OVCAR3-Vector, 800 cells): 0.8333
number of negative wells ([5]; OVCAR3-Vector, 800 cells): 20
